Assay [1] has as its system JAK2/JAK2. Nature of the assay: TPO-stimulated pSTAT3/STAT5 in platelets of human whole blood. The format is cell-based. The procedure: Stimulation was terminated by adding Lyse/Fix buffer. Staining with BUV786 mouse anti-human CD61 antibody (744384; BD Biosciences) was carried out, followed by washing, permeabilization and staining with PE mouse anti-human STAT3 antibody (651004; BD Biosciences) and APC mouse anti-human STAT5 antibody (562076; BD Biosciences), as described above. The expression of p-STAT3 and STAT5 was quantified by the MFI after the number of CD61-positive platelets was optimized.

Assay [2] has as its system JAK1/JAK3. Nature of the assay: IL-2-stimulated pSTAT5 in human whole blood. The format is cell-based. The procedure:
With respect to IL-2-stimulated JAK1/3 activation in human whole blood cells, whole blood (50 μL) was preincubated with compounds for 30 min and then stimulated with IL-2 (20 ng/mL) for 15 min.
(§1) The stimulations stated above were terminated with prewarmed Lyse/Fix Buffer (558,049; BD Biosciences, San Jose, CA, USA) for 10 min. Cells were stained with an anti-cluster of differentiation (CD)3 fluorescein isothiocyanate (FITC) antibody (required for PBMCs but not for the other cell types), washed, and permeabilized on ice using Perm III Buffer (558,050; BD Biosciences) prior to staining with an Alexa Fluor 647 anti-phosphorylated (p)STAT5 (pY694) antibody for 30 min and analyzed by flow cytometry. Phosphorylation of STAT5 was quantified by the median fluorescence intensity (MFI) after gating on the CD3-positive population.

Assay [3] concerns TYK2/JAK1. Nature of the assay: IL-23-induced pSTAT3 in human Th17 cells. In kind it is cell-based. On the procedure: Human naïve CD4^+ T cells were separated using a human naïve CD4^+ T-cell isolation kit (StemCell, #17,852), and then cells were stimulated with anti-CD3 monoclonal antibody and anti-CD28 monoclonal antibody for 7–10 days under the following Th17-skewing treatments: IL-6, IL-23, IL-1β and transforming growth factor-β. Half of the medium was replaced with fresh medium containing a stimulant to induce differentiation every other day. Th17 cells were incubated overnight at 37 °C for deactivation. Cells were reinoculated on 96-well plates and cocultured with gradient-diluted QL-1200186 for 1 h and then stimulated with recombinant human IL-23 (ACRO: #IL-B-H52 WS) for 0.5 h. Cells were collected, and phosphorylation of STAT3 was quantified according to the MFI.

The test system of assay [4] is JAK2/JAK2. The experiment in a line: GM-CSF-stimulated pSTAT5 in U937 cells. In kind it is cell-based, human. Particulars: @10μM. On the procedure: With respect to GM-CSF-stimulated JAK2 activation in U937 cells (Cobioer Biosciences, CBP60277), after 1 h of treatment with QL-1200186, U937 cells were stimulated with GM-CSF (20 ng/mL; C003; Novoprotein, Suzhou, China) for 15 min.
as §1

Assay [5] has as its system TYK2/JAK1. The experiment in a line: IL-23 HEK293 reporter assay. The format is cell-based, human. In general terms: A reporter such as luciferase makes a cellular process visible.
In assay [6] the test system is TYK2/JAK1. Nature of the assay: IFNα-stimulated pSTAT5 in human PBMC (CD3+), FACS. The format is cell-based. On the procedure:
With regard to IFNα-stimulated phosphorylation of STAT5 in human peripheral blood mononuclear cells (PBMCs), after incubation with QL-1200186 for 1 h, human PBMCs were stimulated with recombinant human IFNα (1000 U/mL; 11200–2; PBL Assay Science) for 30 min.
as §1

In assay [7] the test system is JAK1/JAK3. Nature of the assay: IL-2-stimulated pSTAT5 in human PBMC. The format is cell-based. The conditions noted are these: @10μM. The procedure:
With regard to IL-2-stimulated JAK1/3 activation in human PBMCs, after 1 h of incubation with QL-1200186, human PBMCs were stimulated with human IL-2 (20 ng/mL; C013; Novoprotein) for 20 min.
as §1

The test system of a further assay is TYK2/JAK2. Nature of the assay: IL-12/IL-18-induced IFNγ production in NK-92 cells, ELISA. The format is cell-based, human. On the procedure: The inhibitory effect of QL-1200186 on IL-12/IL-18-induced IFNγ production in NK cells or human whole blood was determined by enzyme-linked immunosorbent assay (ELISA). NK92 cells were stimulated with recombinant human IL-12 (2 ng/mL; 200–12; PeproTech, Cranbury, NJ, USA) and recombinant human IL-18 (5 ng/mL; 9124-IL-050/CF; R&D Systems, Minneapolis, MN, USA) with or without QL-1200186 for 24 h at 37 °C. For human whole blood cells, whole blood (200 μL) was preincubated with the compound for 1 h and then stimulated with recombinant human IL-12 (2 ng/mL) or recombinant human IL-18 (10 ng/mL) for 24 h. After centrifugation, the supernatant was collected, and IFNγ production in the supernatant was measured with human IFNγ ELISA kits according to the manufacturer’s instructions (Biolegend, 430,104).
(In general: In an ELISA, binding on a coated surface is turned into a signal by an enzyme label.)

Assay [8] relates to TYK2/JAK1. Nature of the assay: IFNα HEK293 (HEK-Blue IFN-α/β) reporter gene assay. The format is cell-based, human. On the procedure: HEK-Blue™ IFN-α/β cells were used to determine the activity of QL-1200186. After 24 h of incubation with QL-1200186, HEK-Blue™ IFN-α/β cells (Invivogen; NKB-IFNAB) were stimulated with human IFNα (200 U/mL; catalog number: 11200–2; PBL Assay Science; Piscataway, NJ, USA) for 6 h. Stimulation of HEK-Blue IFN-α/β cells with human IFNα activates the JAK/STAT/ISGF3 pathway and subsequently induces the production of SEAP. Levels of SEAP in the supernatant were readily assessable using QUANTI-Blue™ Solution (InvivoGen, San Diego, CA, USA).

Assay [9] deals with TYK2/JAK1. Nature of the assay: IFNα-induced pSTAT1 in CD3+ T cells of human PBMCs. In kind it is cell-based. On the procedure: (§2) The reaction was terminated by collecting cells for surface staining. Cells were stained with anti-CD3 FITC (300406; Biolegend, San Diego, CA, USA), anti-CD19 APC (555415; BD Biosciences) or aqua fluorescent reactive dye BV421 (L34966A; Invitrogen, Carlsbad, CA, USA) antibodies for 20 min. After washing, fixation buffer (557870; BD Biosciences) was added and incubated for 10 min. Cells were washed and permeabilized on ice using Perm III Buffer (558050; BD Biosciences). Cells were stained with PE anti-PSTAT1 antibody (562069; BD Biosciences) for 30 min and analyzed by flow cytometry.

The subject of assay [10] is TYK2/JAK1. Nature of the assay: IFNα-induced pSTAT1 in CD19+ B cells of human PBMCs. In kind it is cell-based. The procedure:
as §2

`CNc1cc(Nc2cccn(-c3ccccn3)c2=O)nc2c(C(=O)N[C@@H]3CC[C@H]3OC)cnn12` [NDI-034858, reference compound]: in the assay on JAK2/JAK2 [1] (human whole blood), the “activity in thrombopoietin (TPO)-induced JAK2/JAK2 signaling” value is reported as “no activity”. The “activity in IL-2-mediated JAK1/JAK3 signaling” value in the assay on JAK1/JAK3 [2] was “no activity”.

In general, IC50 refers to the midpoint of a concentration-inhibition curve. As to “deucravacitinib [BMS-986165, reference compound]”, the IC50 in the assay on TYK2/JAK1 [3] was found to be 6 nM; in the assay with TYK2/JAK1 [5], 6.41 nM; in the assay on TYK2/JAK1 [6], 19 nM; in the assay with TYK2/JAK2 it was 38.8 nM; with TYK2/JAK1 [8] it was 6.33 nM; in the assay with TYK2/JAK1 [9] it was 7.8 nM. The compound further displayed an IC50 in the assay on TYK2/JAK1 [10] of 6.29 nM. Also, in the assay on JAK2/JAK2 [1] (@10μM), the “TPO-pSTAT3/STAT5 in human whole blood (JAK2/JAK2) inhibition” value was “no inhibition @10μM”. Also, in the assay with JAK2/JAK2 [4], the “GM-CSF-pSTAT5 in U937 (JAK2/JAK2) inhibition” value is roughly 10% inhibition @10μM. In the assay on JAK1/JAK3 [2], the “activity in IL-2-mediated JAK1/JAK3 signaling” value is recorded as “slight inhibitory effect”. The “IL-2- pSTAT5 in PBMC (JAK1/JAK3) inhibition” value in the assay with JAK1/JAK3 [7] was roughly 40% inhibition @10μM.

For the origin of these results see paper PMC10578023 (Cell Communication and Signaling : CCS, 2023).
